The values that follow come from a melting point compilation (Tetko et al.; mined from patent text by program, amines drawn as free bases though some values may be those of a salt).

As a reminder, the melting point is the temperature of the solid-liquid transition.

SMILES strings stand for the structures.

Take `O=C(NCCc1ccccc1)c1ccc(S(=O)(=O)NC(=O)c2ccc(C(=O)NCCO)nc2)cc1`: the melting point fell in the range of 228 to 230 °C.

For the compound `COc1ccc(N2CCN(CCn3c(=O)[nH]c4sccc4c3=O)CC2)cc1`, the melting point fell in the range of 249 to 251 °C.

Compound `CCOC(=O)c1ccc2nc(NC)[nH]c2c1` yielded a melting point of 247 to 249 °C.

`CC1CN(c2ccc(N)cc2)CC(C)N1` (stereo not given) yielded a melting point of 124 to 125 °C.

In turn, `CN(C)CCN1CCC(=Cc2cc(C(C)(C)C)c(O)c(C(C)(C)C)c2)C1=O` came in with a melting point of 150 °C.

Regarding `CCOC(=O)Nc1cccc(OC)c1[N+](=O)[O-]`, the melting point was in the range of 131 to 132 °C.

`CC(C)(NS(=O)(=O)c1ccc(Oc2ccc(F)cc2)cc1)C(=O)NO` came in with a melting point of 133 to 134 °C.

In turn, `CCC(=O)Nc1nc2ccc(Cl)cc2n2c(CC)nnc12` returned a melting point of 212 to 215 °C.

In turn, `CC(=O)SCCC(=O)N1N=C(c2ccccc2)CC1C(=O)O` (stereo not given) showed a melting point of 137 to 139 °C.

For the compound `O=C(NC(=O)c1c(F)cccc1F)Nc1ccc(SC(F)(F)C(F)F)cc1F`, the melting point was 177 to 179 °C.

The compound `O=C1CC(NC(=O)C2CCCN3C(=O)CCC(NC(=O)c4ccc5c(c4)OCO5)C(=O)N23)C(OCc2ccccc2)O1` (stereo not given) displayed a melting point of 135 to 140 °C.

The compound `OCCON=Cc1cnc2ccccc2c1` registered a melting point of 129 °C.

The compound `Cc1c(C)c2c(c(C)c1N)C(c1ccc(C(C)C)cc1)C(C)(C)O2` (stereo not given) returned a melting point of 130 to 132 °C.

In turn, `O=C(O)C(=O)c1ccc(CCCOc2ccc3ccccc3c2)cc1` had a melting point of 151 to 154 °C.

Consider `COc1ccccc1-n1c(=O)[nH]c2c(C(N)=O)nc(Nc3ccccc3O)nc21`, for which the melting point lay in the range of 314 to 315 °C.

Compound `O=C(O)c1c[nH]c2c(-c3ccncc3)c(-c3ccc(F)cc3)nn2c1=O` came in with a melting point of 215 to 218 °C.

`CCOC(=O)Cc1cn(Cc2ccccc2)nc1O` came in with a melting point of 156 to 157 °C.

`O=C(C=Cc1ccc(CNCC2CCCC2)cc1)Nc1ccc(-c2ccc(Cl)cc2)cc1` gave a melting point of 209 to 210 °C.

`C#Cc1ccc(C(CC2CCCC2)C(=O)O)cc1` (stereo not given) returned a melting point of 80 to 83 °C.

`CC(C)(C)C1Cn2c(nc3ccccc32)-c2ccccc2O1` (stereo not given) came in with a melting point of 149 to 150 °C.

In the case of `CC(CC(N)=O)(c1ccc(O)cc1)c1ccc(O)cc1`, the melting point is 216 °C.

In the case of `CS(=O)(=O)c1ccc(CC(=S)N2CCOCC2)cc1`, the melting point was in the range of 198 to 199 °C.

For `CCOC(=O)C(C)c1ccc(NC2OC(=O)c3ccccc32)cc1` (stereo not given), the melting point lay in the range of 136 to 139 °C.

`CC(C)(C)OC(=O)N[C@H]1CN(N=C(c2ccccc2)c2ccccc2)C1=O` returned a melting point of 167 to 170 °C.

In the case of `CSC1=NCC2CN=C(c3ccccc3F)c3cc(Cl)ccc3N12` (stereo not given), the melting point was in the range of 163 to 165 °C.

Consider `COc1cccc2c1Cc1c(OC)cccc1C2(CCO)CCO`, for which the melting point is 193 to 196 °C.

`CCCCCCC(C)(Sc1cc(C(C)(C)C)c(O)c(C(C)(C)C)c1)Sc1cc(C(C)(C)C)c(O)c(C(C)(C)C)c1` came in with a melting point of 130 to 133 °C.

As for `CCN(CC)Cc1ccc2[nH]c(-c3ccccc3)cc(=O)c2c1`, the melting point lay in the range of 228 to 230 °C.

The compound `CCN1CC2=C(C1)CN(c1c(F)cc3c(=O)c(C(=O)O)cn(C4CC4)c3c1F)C2` showed a melting point of 188 to 192 °C.

As to `O=C(c1ccc2c(=O)nc(-c3ccccn3)sc2c1)N1CCCC1`, the melting point came to 174 °C.

Take `CCOC(=O)c1c(C(F)(F)F)nc(C(F)(F)F)c(C(=O)OC)c1Cl`: the melting point is 46 to 48 °C.

As to `COc1ccc(CN2Cc3cncn3C(c3ccc(-c4ccsc4)cc3)C2=O)cc1` (stereo not given), the melting point fell in the range of 162 to 164 °C.

Consider `COc1ccc(C2=CCCS(=O)C2)cc1OC1CCCC1` (stereo not given), for which the melting point was 92 to 93 °C.

In the case of `COc1cccc2c1C(=O)N1CCC[C@H]1C(=O)N2`, the melting point lay in the range of 247 to 251 °C.

`CCOC(=O)c1cc2n(c1)CN(C(=O)OCC)c1ccc(Br)cc1-2` yielded a melting point of 161 to 163 °C.

The compound `O=C(Nc1cccc2c1C(=O)c1c-2n[nH]c1-c1ccc(C(=O)N2CCC[C@@H]2CN2CCCC2)s1)NN1CCOCC1` came in with a melting point of 166 to 167 °C.

In the case of `CCCCOc1c(CNC(=O)OC(C)(C)C)n(CC2CC2)c(=O)c2ccc(C=O)cc12`, the melting point lay within 151 to 152 °C.

The compound `O=C(O)CCc1ccc(OCCSCCO)cc1` returned a melting point of 64 to 65 °C.

Regarding `O=C(O)CCC(=O)Nc1ccc(C(=O)N2CCCCc3ccccc32)cc1`, the melting point worked out at 192 °C.

Consider `Oc1ccc2c(c1)C(Cc1c[nH]cn1)CC2` (stereo not given), for which the melting point fell in the range of 206 to 208 °C.

In turn, `COc1ccc(-c2[nH]cnc2-c2cc(OC)c(N)c(OC)c2)cc1F` yielded a melting point of 101 to 103 °C.

`COc1ccc(N2C(=O)C3Cc4c(ncn4Cc4ccccc4)CN3C2=S)cc1` (stereo not given) registered a melting point of 100 to 120 °C.

Compound `Cc1cc(C)c2cccc(OCc3c(C)ccc(N(C)C(=O)CN)c3C)c2n1` came in with a melting point of 145 to 148 °C.

On to `CC1(C)OC(=O)Nc2ccc(-c3cc(F)cc(Cl)c3)cc21`, for which the melting point fell in the range of 193 to 194 °C.

As for `COc1ccc(-c2cccc(C(=O)NCCO)c2)c2cc(Cc3cccc(C(F)(F)F)c3)oc12`, the melting point lay in the range of 111 to 112 °C.

In the case of `CCOC(=O)c1c2n(c3ccc(F)cc3c1=O)CCS2`, the melting point fell in the range of 225 to 226 °C.

The compound `CC(=O)c1ccc2c(c1)C(Cc1ccccc1)=CC(=CCl)CO2` registered a melting point of 89 to 94 °C.

`C[C@H]1Cc2c(Cl)c(Cl)cc3c(=O)c(C(=O)O)cn1c23` came in with a melting point of 268 to 270 °C.

Consider `Cc1ccnc2c(O)cccc12`, for which the melting point fell in the range of 135 to 136 °C.

Compound `Cc1cn(C2CC(O)(COCc3ccccc3)C(CO)O2)c(=O)n(COCc2ccccc2)c1=O` (stereo not given) showed a melting point of 83 to 84 °C.

As to `CCOC(=O)CCC(=O)c1ccc2c(c1)CCC2`, the melting point was 51 to 52 °C.

`CC1NC(=O)NN=C1c1ccc2sc(=O)n(CC(=O)N3CCN(CCO)CC3)c2c1` (stereo not given) gave a melting point of 248 to 250 °C.

On to `CCOC(=O)c1cn(C)c2nc3c(F)c(F)c(F)cc3cc2c1=O`, for which the melting point worked out at 320 °C.

With `CCOC(=O)c1c(O)c2c(C)csc2n(Cc2ccccc2)c1=O`, the melting point turned out to be 166 °C.

Compound `CC(C)(C)c1ccc(OCC(O)CN(CCO)CCO)cc1` (stereo not given) registered a melting point of 45 to 47 °C.

Regarding `COc1cc2cc(C(=O)N3CC(CCl)c4c3cc(NC(=O)OCc3ccc([N+](=O)[O-])cc3)c3ccccc43)[nH]c2c(OC)c1OC` (stereo not given), the melting point lay in the range of 191 to 192 °C.

In turn, `ON=C(c1ccc2c(c1)OCO2)C(F)(F)F` yielded a melting point of 96 °C.

`CC(C)(C)C1=CC(=Nc2cccc(C(=O)O)c2)C=C(C(C)(C)C)C1=O`: the melting point was 230 to 231 °C.

Regarding `Oc1cccc2c1ccn2CCOCCC(c1ccccc1)c1ccccc1`, the melting point is 107 to 109 °C.

With `Cc1ccc(N2CN(CCN(C)C)CN(C)C2=S)c(C)c1`, the melting point was in the range of 65 to 70 °C.

The compound `CN(C)C1(c2ccccc2)CCC(CC(=O)N2CCC(c3c[nH]c4ccccc34)C2)CC1` (stereo not given) returned a melting point of 98 to 100 °C.

The compound `Cc1ccc(-c2ccc(C=Cc3ccc(Cl)cc3)s2)s1` yielded a melting point of 157 to 162 °C.

For `Cc1cc(I)cc(C=O)c1N`, the melting point came out at 134 °C.

As for `CCCCCCCCCCCCCCCCCCOc1cc(OCCCCCc2cccc(O)c2O)cc(N(CC(=O)O)CC(=O)O)c1`, the melting point lay within 129 to 131 °C.

`O=C(O)c1cc2cc(Cl)ccc2nc1NC(Cc1c[nH]c2cc(F)ccc12)C(=O)O` (stereo not given) gave a melting point of 170 to 174 °C.

For the compound `CCCOc1ccc2c(c1)C(=O)c1cccc(OC)c1-2`, the melting point lay within 96 to 97 °C.

`CC(C)(C)OC(=O)N[C@H]1CC[C@H](ON2C(=O)c3ccccc3C2=O)CC1` had a melting point of 134 to 135 °C.

`CCOC(=O)c1cnc(Nc2ccccc2OCC)[nH]c1=O`: the melting point lay within 220 to 221 °C.

As to `C[C@H]1C[C@H](OC(=O)C(C)(C)Oc2ccc(CCNC(=O)c3ccc(Cl)cc3)cc2)CC(C)(C)C1` (relative stereo), the melting point was 100 °C.

As to `O=C(O)c1ccc(-c2cc(-c3ccccc3)on2)cc1`, the melting point was 297 to 298 °C.

In turn, `COC(=O)c1ccc(F)cc1C#N` gave a melting point of 92 to 93 °C.

Compound `CC(=O)Nc1ccn(C2OC(COC(C)=O)C(Br)C2OC(C)=O)c(=O)n1` (stereo not given) showed a melting point of 179 to 180 °C.

The compound `CCC(C)(C)NC(Nc1ccc2c(c1)OCO2)=C(C#N)S(=O)(=O)c1ccc(Cl)cc1` displayed a melting point of 169 to 170 °C.

In turn, `O=C1CCC(N2Cc3c(OCc4ccc(S(=O)(=O)N5CCOCC5)cc4)cccc3C2=O)C(=O)N1` (stereo not given) had a melting point of 308 to 310 °C.

As to `CCOC(=O)N=P(c1ccccc1)(c1ccccc1)c1ccccc1CN1CCCCC1`, the melting point was 121 to 123 °C.

Compound `CSC(=S)NN=Cc1c[nH]cn1` had a melting point of 259 to 261 °C.

Consider `CCCCc1cn(Cc2ccc(-c3ccccc3C(=O)O)cc2)c2ccccc2c1=O`, for which the melting point came to 214 °C.

Compound `O=C(O)CN1C(=O)C(c2ccccc2)SC1=S` (stereo not given) showed a melting point of 158 to 159 °C.

`COc1ccc(C=C2C=CC(=O)O2)cc1` registered a melting point of 118 to 120 °C.

For the compound `CS(=O)(=O)N(c1ccc(C(=O)NC2CCN(C3CCCCC3)C2)cc1)S(C)(=O)=O` (stereo not given), the melting point lay in the range of 176 to 178 °C.

Take `O=C(COc1ccc(Cl)cc1)N[C@@H](Cc1ccccc1)C(=O)CSCc1ccco1`: the melting point lay within 95 to 98 °C.

For the compound `CC(C)(C)OC(=O)NC(CNC(=O)c1ccccc1)C(=O)O` (stereo not given), the melting point was in the range of 110 to 111 °C.

`Oc1ccc(-c2ccc(O)cc2I)c(I)c1` came in with a melting point of 171 to 172 °C.

Take `COc1ccc(CCc2oc3ccc(Br)cc3c2CCl)cc1`: the melting point lay in the range of 70 to 75 °C.

With `Cc1ccc(C=C2CSCC3=C2N(CC(F)(F)F)NC3c2ccc(C)cc2)cc1` (stereo not given), the melting point was in the range of 168 to 178 °C.

As to `COc1ccc(C(O)Cc2c(Cl)cncc2Cl)c2c1OC(C)(C)C2` (stereo not given), the melting point lay in the range of 100 to 104 °C.

In turn, `Cc1oc(-c2ccccc2)nc1COc1cncc(COc2ccccc2CC(=O)O)c1` displayed a melting point of 207 to 208 °C.

Turning to `CN1CC2(CCN(Cc3ccccc3)CC2)OC1=O`, the melting point lay within 137 to 138 °C.

`COc1cccc(C(=O)c2ccc(=O)n(Cc3ccc(Cl)cc3)c2)c1` yielded a melting point of 104 °C.

In the case of `Nc1ccc2c(c1)C(=O)N(CCO)C2=O`, the melting point lay in the range of 171 to 173 °C.
